Legend:
Assay type in all cases: in vivo, human
[1] = tested on: cognitively impaired patients with EDS associated with OSA; assay: SHARP clinical study: Epworth Sleepiness Scale (ESS); conditions: 2 weeks treatment, 150 mg per day
Description: (§1) SHARP (Solriamfetol's Effect on Cognitive Health in Apnea Participants During a Randomized Placebo-controlled Study) was a randomized, double-blind, placebo-controlled, crossover, multicenter, trial in which 59 patients with excessive daytime sleepiness (EDS) and obstructive sleep apnea (OSA), who were experiencing cognitive impairment, were all treated with solriamfetol for 2 weeks, and with placebo for 2 weeks, with the treatment periods separated by 1 week of down-titration and washout. Patients were randomized in a 1:1 ratio either to treatment with solriamfetol followed by placebo (sequence 1), or to treatment with placebo followed by solriamfetol (sequence 2). Solriamfetol was administered orally once daily, starting at 75 mg per day for the first three days and 150 mg per day for the remainder of the 2-week treatment period. The primary outcome measure was the Digit Symbol Substitution Test subtest of the Repeatable Battery for the Assessment of Neuropsychological Status (DSST RBANS). The Digit Symbol Substitution subtest is also referred to as “Coding.” The prespecified primary endpoint was the change from baseline in cognitive function as measured by the DSST RBANS after 2 weeks of treatment (average of the 2-, 4-, 6-, and 8-hour post-dose DSST RBANS scores). […] The secondary endpoints were analyzed in a pre-specified testing sequence. […]

[2] = tested on: cognitively impaired patients with EDS associated with OSA; assay: SHARP clinical study: Digit Symbol Substitution Test subtest of RBANS (DSST RBANS)
Description: as §1

[3] = tested on: cognitively impaired patients with EDS associated with OSA; assay: SHARP clinical study: British Columbia Cognitive Complaints Inventory (BC-CCI); conditions: 2 weeks treatment, 150 mg per day
Description: as §1

[4] = tested on: cognitively impaired patients with EDS associated with OSA; assay: SHARP clinical study: adverse events; conditions: solriamfetol treatment, 75 then 150 mg per day oral, 2 weeks
Description: as §1

SMILES: NC(=O)OC[C@H](N)Cc1ccccc1 [solriamfetol, (R)-2-amino-3-phenylpropyl carbamate]
- effect size, ESS vs. placebo [1]: 0.50
- improvement on the ESS relative to placebo ([1]; p=0.004): approximately twice that observed with placebo
- effect size, DSST RBANS vs. placebo ([2]; 2 weeks treatment, 150 mg per day): 0.36
- change from baseline on the DSST RBANS ([2]; after 2 weeks oral once daily (75 mg 3 days, then 150 mg), average of 2-, 4-, 6-, 8-hour post-dose scores, placebo 4.75, p=0.009): 6.49
- effect size, BC-CCI overall score vs. placebo [3]: 0.43
- improvement in cognitive function, BC-CCI overall score compared to placebo ([3]; p=0.002): Statistically significant improvement
- adverse event incidence: anxiety [4]: 3.4%
- adverse event incidence: nausea [4]: 6.9%
